# Where two headings read alike, the source gives them in different places.
# Biological target: T1, E. coli CsgA (Escherichia coli, UniProt P28307)
# T1 construct: made in house; host or cells: E. coli NEB 3016 slyD::kan, pET11d
# Assay: In vitro ThioflavinT assay of CsgA aggregation (CsgA ThT Assay)
# Type: biochemical
# Conditions: for remaining activity at 25 µM: compound 25 μM; for remaining activity at 100 µM: compound 100 μM
# How it was run: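 Purified C-terminal His-tagged CsgA, monomerised by desalting and 30-kDa filtration, at 2-20 μM with 20-40 μM ThT in 50 mM potassium phosphate pH 7.3, 1% DMSO, compounds 3.125-200 uM; room temperature, fluorescence (ex 438/em 495 nm) read every 15 min. Background-subtracted signal expressed as percent inhibition versus vehicle at 6-6.5 or 8-9 h, or as percent control AUC.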
# [1] = read-out: CsgA ThT Assay (2 μM CsgA) % Control Bmax 25 μM, activity range, class symbol, CsgA 2 μM, white plates
# [2] = read-out: CsgA ThT Assay (2 μM CsgA) % Control Bmax 25 μM, mean Bmax as percentage of DMSO control, CsgA 2 μM, white plates
# [3] = read-out: CsgA ThT Assay (2 μM CsgA) % Control Bmax 100 μM, activity range, class symbol, CsgA 2 μM, white plates
# [4] = read-out: CsgA ThT Assay (2 μM CsgA) % Control Bmax 100 μM, mean Bmax as percentage of DMSO control, CsgA 2 μM, white plates
# [5] = read-out: CsgA ThT Assay (10 μM CsgA) % Control AUC at 1005 minutes, 25 μM (activity range), CsgA 10 μM, black plates, 1005 minutes, class symbol
# [6] = read-out: CsgA ThT Assay (10 μM CsgA) % Control AUC at 1005 minutes, 25 μM, mean AUC as % of DMSO control, CsgA 10 μM, black plates, 1005 minutes
# [7] = read-out: CsgA ThT Assay (10 μM CsgA) % Control AUC at 1005 minutes, 100 μM (activity range), CsgA 10 μM, black plates, 1005 minutes, class symbol
# [8] = read-out: CsgA ThT Assay (10 μM CsgA) % Control AUC at 1005 minutes, 100 μM, mean AUC as % of DMSO control, CsgA 10 μM, black plates, 1005 minutes
# T1 sequence (P28307 23-151): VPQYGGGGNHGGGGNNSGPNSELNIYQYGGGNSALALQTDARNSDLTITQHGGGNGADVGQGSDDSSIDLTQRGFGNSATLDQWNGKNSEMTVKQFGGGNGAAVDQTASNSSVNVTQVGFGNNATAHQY
SMILES,remaining activity at 25 µM [1] [%],remaining activity at 25 µM [2] [%],remaining activity at 100 µM [3] [%],remaining activity at 100 µM [4] [%],remaining activity at 25 µM [5] [%],remaining activity at 25 µM [6] [%],remaining activity at 100 µM [7] [%],remaining activity at 100 µM [8] [%]
"COc1ccc(CN2CC(C(=O)O)n3c2c(-c2cccc(C(F)(F)F)c2)c(Cc2cccc4ccccc24)c(Cl)c3=O)cc1 (stereo not drawn) [Compound 192, 6-chloro-1-(4-methoxybenzyl)-7-(naphthalen-1-ylmethyl)-5-oxo-8-(3-(trifluoromethyl)phenyl)-1,2,3,5-tetrahydroimidazo[1,2-a]pyridine-3-carboxylic acid]",> 60,87,> 60,95,–,–,–,–
"CCCCN1CC(C(=O)O)n2c(c(-c3cccc(C(F)(F)F)c3)c(Cc3cccc4ccccc34)c(C(N)=O)c2=O)S1(=O)=O (stereo not drawn) [Compound 177, 2-butyl-7-carbamoyl-8-(naphthalen-1-ylmethyl)-6-oxo-9-(3-(trifluoromethyl)phenyl)-3,4-dihydro-2H,6H-pyrido[1,2-e][1,2,5]thiadiazine-4-carboxylic acid 1,1-dioxide]",31 to 60,32,11 to 31,21,–,–,–,–
"O=C(O)C1CN(CCCO)S(=O)(=O)c2c(-c3cccc(C(F)(F)F)c3)c(Cc3cccc4ccccc34)cc(=O)n21 (stereo not drawn) [Compound 056, 2-(3-hydroxypropyl)-8-(naphthalen-1-ylmethyl)-6-oxo-9-(3-(trifluoromethyl)phenyl)-3,4-dihydro-2H,6H-pyrido[1,2-e][1,2,5]thiadiazine-4-carboxylic acid 1,1-dioxide]",–,–,–,–,31 to 60,38,31 to 60,34
"CCNC(=O)c1c(Cc2cccc3ccccc23)c(-c2cccc(C(F)(F)F)c2)c2n(c1=O)C(C(=O)O)CN(C)S2(=O)=O (stereo not drawn) [Compound 156, 7-(ethylcarbamoyl)-2-methyl-8-(naphthalen-1-ylmethyl)-6-oxo-9-(3-(trifluoromethyl)phenyl)-3,4-dihydro-2H,6H-pyrido[1,2-e][1,2,5] thiadiazine-4-carboxylic acid 1,1-dioxide]",> 60,80,> 60,90,–,–,–,–
"O=C(O)c1c(-c2ccccc2)sc2c(-c3cccc(C(F)(F)F)c3)c(Cc3cccc4ccccc34)cc(=O)n12 [Compound 051, 7-(naphthalen-1-ylmethyl)-5-oxo-2-phenyl-8-(3-(trifluoromethyl)phenyl)-5H-thiazolo[3,2-a]pyridine-3-carboxylic acid]",–,–,–,–,> 60,81,31 to 60,54
"CCCN1CC(C(=O)O)n2c(c(-c3cccc(C(F)(F)F)c3)c(Cc3cccc4ccccc34)c(NC(=O)C(C)C)c2=O)S1(=O)=O (stereo not drawn) [Compound 152, 7-isobutyramido-8-(naphthalen-1-ylmethyl)-6-oxo-2-propyl-9-(3-(trifluoromethyl)phenyl)-3,4-dihydro-2H,6H-pyrido[1,2-e][1,2,5]thiadiazine-4-carboxylic acid 1,1-dioxide]",> 60,90,> 60,107,–,–,–,–
"O=C(O)C1CN(Cc2cccc(O)c2)c2c(-c3cccc(C(F)(F)F)c3)c(Cc3cccc4ccccc34)c(Cl)c(=O)n21 (stereo not drawn) [Compound 196, 6-chloro-1-(3-hydroxybenzyl)-7-(naphthalen-1-ylmethyl)-5-oxo-8-(3-(trifluoromethyl)phenyl)-1,2,3,5-tetrahydroimidazo[1,2-a]pyridine-3-carboxylic acid]",> 60,67,–,–,–,–,–,–
"Cn1c(=O)c2c(ncn2CCCCCN2CC(C(=O)O)n3c(c(-c4cccc(C(F)(F)F)c4)c(Cc4cccc5ccccc45)cc3=O)S2(=O)=O)n(C)c1=O (stereo not drawn) [Compound 034, 2-(5-(1,3-dimethyl-2,6-dioxo-1,2,3,6-tetrahydro-7H-purin-7-yl)pentyl)-8-(naphthalen-1-ylmethyl)-6-oxo-9-(3-(trifluoromethyl)phenyl)-3,4-dihydro-2H,6H-pyrido[1,2-e][1,2,5]thiadiazine-4-carboxylic acid 1,1-dioxide]",–,–,–,–,> 60,62,> 60,95
"CNC(=O)CCCN1CC(C(=O)O)n2c(c(-c3cccc(C(F)(F)F)c3)c(Cc3cccc4ccccc34)cc2=O)S1(=O)=O (stereo not drawn) [Compound 037, 2-(4-(methylamino)-4-oxobutyl)-8-(naphthalen-1-ylmethyl)-6-oxo-9-(3-(trifluoromethyl)phenyl)-3,4-dihydro-2H,6H-pyrido[1,2-e][1,2,5]thiadiazine-4-carboxylic acid 1,1-dioxide]",–,–,–,–,> 60,71,31 to 60,53
"O=C(O)c1c(CCc2ccccc2)sc2c(-c3cccc(C(F)(F)F)c3)c(Cc3cccc4ccccc34)cc(=O)n12 [Compound 062, 7-(naphthalen-1-ylmethyl)-5-oxo-2-phenethyl-8-(3-(trifluoromethyl)phenyl)-5H-thiazolo[3,2-a]pyridine-3-carboxylic acid]",–,–,–,–,> 60,77,> 60,97
"CC(C)CN1CC(C(=O)O)n2c1c(-c1cccc(C(F)(F)F)c1)c(Cc1cccc3ccccc13)c(Cl)c2=O (stereo not drawn) [Compound 164, 6-chloro-1-isobutyl-7-(naphthalen-1-ylmethyl)-5-oxo-8-(3-(trifluoromethyl)phenyl)-1,2,3,5-tetrahydroimidazo[1,2-a]pyridine-3-carboxylic acid]",31 to 60,52,31 to 60,42,–,–,–,–
"O=C(O)C1COc2c(-c3cccc(C(F)(F)F)c3)c(Cc3cccc4ccccc34)cc(=O)n21 (stereo not drawn) [Compound 064, 7-(naphthalen-1-ylmethyl)-5-oxo-8-(3-(trifluoromethyl)phenyl)-2,3-dihydro-5H-oxazolo[3,2-a]pyridine-3-carboxylic acid]",–,–,–,–,31 to 60,45,11 to 31,16
"CCc1c(Cc2cccc3ccccc23)c(-c2cccc(C(F)(F)F)c2)c2n(c1=O)C(C(=O)O)CN2Cc1ccc(OC)cc1 (stereo not drawn) [Compound 161, 6-ethyl-1-(4-methoxybenzyl)-7-(naphthalen-1-ylmethyl)-5-oxo-8-(3-(trifluoromethyl)phenyl)-1,2,3,5-tetrahydroimidazo[1,2-a]pyridine-3-carboxylic acid]",31 to 60,54,11 to 31,29,–,–,–,–
"CCCCN1CC(C(=O)O)n2c1c(-c1cccc(C(F)(F)F)c1)c(Cc1cccc3ccccc13)c(Cl)c2=O (stereo not drawn) [Compound 163, 1-butyl-6-chloro-7-(naphthalen-1-ylmethyl)-5-oxo-8-(3-(trifluoromethyl)phenyl)-1,2,3,5-tetrahydroimidazo[1,2-a]pyridine-3-carboxylic acid]",31 to 60,33,31 to 60,42,–,–,–,–
"O=C(O)C1CSc2c(-c3cccc(C(F)(F)F)c3)c(Cc3cccc4ccccc34)c(CO)c(=O)n21 (stereo not drawn) [Compound 057, 6-(hydroxymethyl)-7-(naphthalen-1-ylmethyl)-5-oxo-8-(3-(trifluoromethyl)phenyl)-2,3-dihydro-5H-thiazolo[3,2-a]pyridine-3-carboxylic acid]",–,–,–,–,31 to 60,59,11 to 31,24
"O=C(O)C1CN(Cc2ccccc2)c2c(-c3cccc(C(F)(F)F)c3)c(Cc3cccc4ccccc34)cc(=O)n21 (stereo not drawn) [Compound 187, 1-benzyl-7-(naphthalen-1-ylmethyl)-5-oxo-8-(3-(trifluoromethyl)phenyl)-1,2,3,5-tetrahydroimidazo[1,2-a]pyridine-3-carboxylic acid]",> 60,69,> 60,74,–,–,–,–
"Cn1c(=O)c2c(nc(CCCCCN3CC(C(=O)O)n4c(c(-c5cccc(C(F)(F)F)c5)c(Cc5cccc6ccccc56)cc4=O)S3(=O)=O)n2C)n(C)c1=O (stereo not drawn) [Compound 045, 8-(naphthalen-1-ylmethyl)-6-oxo-9-(3-(trifluoromethyl)phenyl)-2-(5-(1,3,7-trimethyl-2,6-dioxo-2,3,6,7-tetrahydro-1H-purin-8-yl)pentyl)-3,4-dihydro-2H,6H-pyrido[1,2-e][1,2,5]thiadiazine-4-carboxylic acid 1,1-dioxide]",–,–,–,–,31 to 60,59,31 to 60,53
